In series [1] the target is SCTR (Homo sapiens, UniProt P47872). Description: hSCTR potency, cAMP accumulation in CHO-K1 cells stably overexpressing hSCTR. In kind it is cell-based. More on the design: alternatively Euroscreen ES-712-AF; FAST-0161L; host or cells: CHO-K1. The following applies: cAMP accumulation, CHO-K1 cells overexpressing hSCTR; read-out: hSCTR pEC50 (converted). The method in brief: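 EC50 derived from variable-slope nonlinear regression on 11-point, 3-fold series run in duplicate (crude peptides: 5 points, 10-fold, n=1). Compound stimulation lasted 30 min at room temperature in casein/IBMX-containing DPBS (0.05%, 0.5 mM), 2000 cells/well; cAMP detected by time-resolved FRET after one hour.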
Sequence of SCTR (P47872 23-440): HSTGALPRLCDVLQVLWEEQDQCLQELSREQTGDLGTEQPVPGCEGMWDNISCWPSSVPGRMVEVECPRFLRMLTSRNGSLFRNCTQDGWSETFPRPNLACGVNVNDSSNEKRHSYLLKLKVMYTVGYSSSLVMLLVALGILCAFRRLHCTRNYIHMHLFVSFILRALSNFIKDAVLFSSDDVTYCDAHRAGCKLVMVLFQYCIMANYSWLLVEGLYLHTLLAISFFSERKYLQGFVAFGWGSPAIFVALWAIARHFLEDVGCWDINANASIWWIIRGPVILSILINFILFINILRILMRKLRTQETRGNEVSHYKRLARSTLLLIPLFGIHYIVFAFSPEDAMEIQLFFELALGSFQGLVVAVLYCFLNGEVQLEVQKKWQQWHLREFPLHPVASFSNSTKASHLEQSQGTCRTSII
Background: Cyclic AMP is a second messenger, typically raised through Gs and lowered through Gi signalling.

Series [2] in a line: Turbidity of crude library peptides (absorbance at 600 nm). The class given is physicochemical. Particulars: Physical stability of peptides. The method in brief: (§1)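 Turbidity is the absorbance at 600 nm, taken before heating. Fibril signal is the mean ThT emission at 480 nm (450 nm excitation), read every 10 min over 72 h at 40° C with 700 rpm shaking between reads. Peptides at 267 μM, pH 4.0 acetate or pH 7.0 phosphate buffer (50 mM), 4 μM ThT final.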

For series [3], the target named is GLP1R (Homo sapiens, UniProt P43220). Description: hGLP1R potency, cAMP accumulation in CHO-K1 cells stably overexpressing hGLP1R. In kind it is cell-based. The following applies: for EC50: cAMP accumulation, CHO-K1 cells overexpressing hGLP1R, read-out: hGLP1R pEC50 (converted); for SCTR EC50/GLP1R EC50 ratio: selectivity for hGLP1R over hSCTR, cAMP accumulation in CHO-K1 cells. Details: host or cells: CHO-K1. The method in brief: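 EC50 derives from variable-slope nonlinear regression of cAMP HTRF signal, with purified peptides tested as 11 three-fold dilutions in duplicate. Assay: hGLP1R-overexpressing CHO-K1 cells, 0.5 mM IBMX, 0.05% casein in DPBS, 30 min room-temperature stimulation, GLP-1(7-36) as reference agonist.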
Sequence of GLP1R (P43220 24-463): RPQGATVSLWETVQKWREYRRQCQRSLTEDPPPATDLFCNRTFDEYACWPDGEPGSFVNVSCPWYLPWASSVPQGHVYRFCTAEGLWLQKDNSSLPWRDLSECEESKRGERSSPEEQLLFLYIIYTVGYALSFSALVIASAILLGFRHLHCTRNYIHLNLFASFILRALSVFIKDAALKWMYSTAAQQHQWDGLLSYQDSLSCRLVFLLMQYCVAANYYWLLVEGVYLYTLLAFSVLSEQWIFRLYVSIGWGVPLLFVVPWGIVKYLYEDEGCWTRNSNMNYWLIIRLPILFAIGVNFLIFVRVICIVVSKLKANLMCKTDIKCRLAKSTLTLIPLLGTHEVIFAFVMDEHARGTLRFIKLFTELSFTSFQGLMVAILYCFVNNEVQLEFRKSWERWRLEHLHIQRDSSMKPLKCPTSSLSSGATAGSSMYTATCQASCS

Series [4] in a line: Fibril formation of crude library peptides (Thioflavin T). In kind it is physicochemical. More on the design: key: average ThT fluorescence emission at 480 nm (ex 450 nm), raw units. The following applies: Physical stability of peptides. The method in brief:
as §1

Numbered stars: 1 amine (or outer) side, 2 acyl side, 3 side chain; on linkers, the order of the positions; unused ones are H or OH. Square brackets hold non-standard residues; d marks the D form. Side chains are listed from the residue outwards. Peptide text beside a SMILES is read from it. * marks the point of attachment. C20 diacid = O=C(O)CCCCCCCCCCCCCCCCCCC(=O)*; γGlu = O=C(O)[C@H](CCC(=O)[*:2])N[*:1]; AEEA = NCCOCCOCC(=O)O; Aib = CC(C)(N)C(=O)O

For the compound `CC(C)C[C@H](NC(=O)[C@H](Cc1ccccc1)NC(=O)[C@H](CCCNC(=N)N)NC(=O)[C@H](CCC(N)=O)NC(=O)[C@H](CC(C)C)NC(=O)C(C)(C)NC(=O)[C@H](C)NC(=O)[C@H](CCC(=O)O)NC(=O)[C@H](CCC(=O)O)NC(=O)[C@H](CCCCNC(=O)COCCOCCNC(=O)COCCOCCNC(=O)CC[C@H](NC(=O)CCCCCCCCCCCCCCCCCCC(=O)O)C(=O)O)NC(=O)[C@H](CC(C)C)NC(=O)[C@H](Cc1ccc(O)cc1)NC(=O)[C@H](CO)NC(=O)[C@@H](NC(=O)[C@H](CC(=O)O)NC(=O)[C@H](CO)NC(=O)[C@@H](NC(=O)[C@H](Cc1ccccc1)NC(=O)[C@@H](NC(=O)CNC(=O)[C@H](CCC(=O)O)NC(=O)CNC(=O)[C@@H](N)Cc1c[nH]cn1)[C@@H](C)O)[C@@H](C)O)C(C)C)C(=O)N[C@@H](CCC(=O)O)C(=O)N[C@@H](Cc1c[nH]cn1)C(=O)N[C@@H](CC(C)C)C(=O)N[C@H](C(N)=O)C(C)C` [compound 142] (H-HGEGTFTSDVSYLK([AEEA-AEEA-γGlu-C20 diacid])EEA[Aib]LQRFLEHLV-NH2), the EC50 in series [1] is 20000 nM. The “Turbidity (pH 7)” value in series [2] is on record as 0.08. In series [3], the EC50 is 0.0126 nM and the “SCTR EC50/GLP1R EC50 ratio” value is listed as 1484910. This compound also came in with a Fibril formation in series [4] of 3679.
The matching figures for `CC(C)C[C@H](NC(=O)[C@H](Cc1ccccc1)NC(=O)[C@H](CCCNC(=N)N)NC(=O)[C@H](CCC(N)=O)NC(=O)[C@H](CC(C)C)NC(=O)C(C)(C)NC(=O)[C@H](C)NC(=O)[C@H](CCC(=O)O)NC(=O)[C@H](CCC(=O)O)NC(=O)[C@H](Cc1ccc(O)cc1)NC(=O)[C@H](CC(C)C)NC(=O)[C@H](Cc1ccc(O)cc1)NC(=O)[C@H](CO)NC(=O)[C@@H](NC(=O)[C@H](CC(=O)O)NC(=O)[C@H](CO)NC(=O)[C@@H](NC(=O)[C@H](Cc1ccccc1)NC(=O)[C@@H](NC(=O)CNC(=O)[C@H](CCC(=O)O)NC(=O)C(C)(C)NC(=O)[C@@H](N)Cc1c[nH]cn1)[C@@H](C)O)[C@@H](C)O)C(C)C)C(=O)N[C@@H](CCC(=O)O)C(=O)N[C@@H](CCCCNC(=O)COCCOCCNC(=O)COCCOCCNC(=O)CC[C@H](NC(=O)CCCCCCCCCCCCCCCCCCC(=O)O)C(=O)O)C(=O)N[C@@H](CC(C)C)C(=O)N[C@H](C(N)=O)C(C)C` [compound 143] (H-H[Aib]EGTFTSDVSYLYEEA[Aib]LQRFLEK([AEEA-AEEA-γGlu-C20 diacid])LV-NH2): 794 nM, 0.08, 0.01 nM, 88736 and 5733.
Consider `CC(C)C[C@H](NC(=O)[C@H](Cc1ccccc1)NC(=O)[C@H](CCCNC(=N)N)NC(=O)[C@H](CCC(N)=O)NC(=O)[C@H](CC(C)C)NC(=O)C(C)(C)NC(=O)[C@H](C)NC(=O)[C@H](CCC(=O)O)NC(=O)[C@H](CCC(=O)O)NC(=O)[C@H](CCCCNC(=O)COCCOCCNC(=O)COCCOCCNC(=O)CC[C@H](NC(=O)CCCCCCCCCCCCCCCCCCC(=O)O)C(=O)O)NC(=O)[C@H](CC(C)C)NC(=O)[C@H](Cc1ccc(O)cc1)NC(=O)[C@H](CO)NC(=O)[C@@H](NC(=O)[C@H](CC(=O)O)NC(=O)[C@H](CO)NC(=O)[C@@H](NC(=O)[C@H](Cc1ccccc1)NC(=O)[C@@H](NC(=O)CNC(=O)[C@H](CCC(=O)O)NC(=O)C(C)(C)NC(=O)[C@@H](N)Cc1c[nH]cn1)[C@@H](C)O)[C@@H](C)O)C(C)C)C(=O)N[C@@H](CCC(=O)O)C(=O)N[C@@H](Cc1ccc(O)cc1)C(=O)N[C@@H](CC(C)C)C(=O)N[C@H](C(N)=O)C(C)C` [compound 144] (H-H[Aib]EGTFTSDVSYLK([AEEA-AEEA-γGlu-C20 diacid])EEA[Aib]LQRFLEYLV-NH2), for which the EC50 in series [1] was 251 nM. Besides, the “Turbidity (pH 7)” value in series [2] was 0.08. In series [3], the EC50 was 0.0158 nM and the “SCTR EC50/GLP1R EC50 ratio” value turned out to be 16042. This compound came in with a Fibril formation in series [4] of 5805.
Consider `CC(C)C[C@H](NC(=O)[C@H](Cc1ccccc1)NC(=O)[C@H](CCCNC(=N)N)NC(=O)[C@H](CCC(N)=O)NC(=O)[C@H](CC(C)C)NC(=O)C(C)(C)NC(=O)[C@H](C)NC(=O)[C@H](CCC(=O)O)NC(=O)[C@H](CCC(=O)O)NC(=O)[C@H](CCCCNC(=O)COCCOCCNC(=O)COCCOCCNC(=O)CC[C@H](NC(=O)CCCCCCCCCCCCCCCCCCC(=O)O)C(=O)O)NC(=O)[C@H](CC(C)C)NC(=O)[C@H](Cc1c[nH]cn1)NC(=O)[C@H](CO)NC(=O)[C@@H](NC(=O)[C@H](CC(=O)O)NC(=O)[C@H](CO)NC(=O)[C@@H](NC(=O)[C@H](Cc1ccccc1)NC(=O)[C@@H](NC(=O)CNC(=O)[C@H](CCC(=O)O)NC(=O)C(C)(C)NC(=O)[C@@H](N)Cc1c[nH]cn1)[C@@H](C)O)[C@@H](C)O)C(C)C)C(=O)N[C@@H](CCC(=O)O)C(=O)N[C@@H](Cc1c[nH]cn1)C(=O)N[C@@H](CC(C)C)C(=O)N[C@H](C(N)=O)C(C)C` [compound 145] (H-H[Aib]EGTFTSDVSHLK([AEEA-AEEA-γGlu-C20 diacid])EEA[Aib]LQRFLEHLV-NH2), for which, in series [1], the EC50 was 63.1 nM. For the same compound, the “Turbidity (pH 7)” value in series [2] amounted to 0.08. For the same compound, in series [3], the EC50 was 0.00794 nM and the “SCTR EC50/GLP1R EC50 ratio” value stood at 8838. Moreover, the Fibril formation in series [4] amounted to 2891.
As for `CC(C)C[C@H](NC(=O)[C@H](Cc1ccccc1)NC(=O)[C@H](CCCNC(=N)N)NC(=O)[C@H](CCC(N)=O)NC(=O)[C@H](C)NC(=O)C(C)(C)NC(=O)[C@H](C)NC(=O)[C@H](CCC(=O)O)NC(=O)[C@H](CCC(=O)O)NC(=O)[C@H](CCCCNC(=O)COCCOCCNC(=O)COCCOCCNC(=O)CC[C@H](NC(=O)CCCCCCCCCCCCCCCCCCC(=O)O)C(=O)O)NC(=O)[C@H](CC(C)C)NC(=O)[C@H](Cc1ccc(O)cc1)NC(=O)[C@H](CO)NC(=O)[C@@H](NC(=O)[C@H](CC(=O)O)NC(=O)[C@H](CO)NC(=O)[C@@H](NC(=O)[C@H](Cc1ccccc1)NC(=O)[C@@H](NC(=O)CNC(=O)[C@H](CCC(=O)O)NC(=O)C(C)(C)NC(=O)[C@@H](N)Cc1c[nH]cn1)[C@@H](C)O)[C@@H](C)O)C(C)C)C(=O)N[C@@H](CCC(=O)O)C(=O)N[C@@H](Cc1c[nH]cn1)C(=O)N[C@@H](CC(C)C)C(=O)N[C@H](C(N)=O)C(C)C` [compound 146] (H-H[Aib]EGTFTSDVSYLK([AEEA-AEEA-γGlu-C20 diacid])EEA[Aib]AQRFLEHLV-NH2), the EC50 in series [1] was 2000 nM. Besides, the “Turbidity (pH 7)” value in series [2] is recorded as 0.08. Further, in series [3], the EC50 was 0.00251 nM and the “SCTR EC50/GLP1R EC50 ratio” value is 789678. The Fibril formation in series [4] came out at 3918.
In the case of `CC(C)C[C@H](NC(=O)[C@H](Cc1ccccc1)NC(=O)[C@H](CCCNC(=N)N)NC(=O)[C@H](CCC(N)=O)NC(=O)[C@H](CC(C)C)NC(=O)C(C)(C)NC(=O)[C@H](C)NC(=O)[C@H](CCC(=O)O)NC(=O)[C@H](CCC(=O)O)NC(=O)[C@H](CCCCNC(=O)COCCOCCNC(=O)COCCOCCNC(=O)CC[C@H](NC(=O)CCCCCCCCCCCCCCCCCCC(=O)O)C(=O)O)NC(=O)[C@H](CC(C)C)NC(=O)[C@H](Cc1ccc(O)cc1)NC(=O)[C@H](CO)NC(=O)[C@@H](NC(=O)[C@H](CC(=O)O)NC(=O)[C@H](CO)NC(=O)[C@@H](NC(=O)[C@H](Cc1ccccc1)NC(=O)[C@@H](NC(=O)CNC(=O)[C@H](CCC(=O)O)NC(=O)C(C)(C)NC(=O)[C@@H](N)Cc1c[nH]cn1)[C@@H](C)O)[C@@H](C)O)C(C)C)C(=O)N[C@@H](CCC(=O)O)C(=O)N[C@@H](CCCCN)C(=O)N[C@@H](CC(C)C)C(=O)N[C@H](C(N)=O)C(C)C` [compound 147] (H-H[Aib]EGTFTSDVSYLK([AEEA-AEEA-γGlu-C20 diacid])EEA[Aib]LQRFLEKLV-NH2), the EC50 in series [1] was 63.1 nM. For the same compound, the “Turbidity (pH 7)” value in series [2] is given as 0.08. Also, in series [3], the EC50 was 0.00501 nM and the “SCTR EC50/GLP1R EC50 ratio” value was found to be 12361. This compound also gave a Fibril formation in series [4] of 4336.
In the case of `CC(C)C[C@H](NC(=O)[C@H](C)NC(=O)[C@H](CO)NC(=O)[C@@H](NC(=O)[C@H](CC(=O)O)NC(=O)[C@H](CO)NC(=O)[C@@H](NC(=O)[C@H](Cc1ccccc1)NC(=O)[C@@H](NC(=O)CNC(=O)[C@H](CCC(=O)O)NC(=O)C(C)(C)NC(=O)[C@@H](N)Cc1c[nH]cn1)[C@@H](C)O)[C@@H](C)O)C(C)C)C(=O)N[C@@H](CCCCNC(=O)COCCOCCNC(=O)COCCOCCNC(=O)CC[C@H](NC(=O)CCCCCCCCCCCCCCCCCCC(=O)O)C(=O)O)C(=O)N[C@@H](CCC(=O)O)C(=O)N[C@@H](CCC(=O)O)C(=O)N[C@@H](C)C(=O)NC(C)(C)C(=O)N[C@@H](CC(C)C)C(=O)N[C@@H](CCC(N)=O)C(=O)N[C@@H](CCCNC(=N)N)C(=O)N[C@@H](Cc1ccccc1)C(=O)N[C@@H](CC(C)C)C(=O)N[C@@H](CCC(=O)O)C(=O)N[C@@H](Cc1c[nH]cn1)C(=O)N[C@@H](CC(C)C)C(=O)N[C@H](C(N)=O)C(C)C` [compound 148] (H-H[Aib]EGTFTSDVSALK([AEEA-AEEA-γGlu-C20 diacid])EEA[Aib]LQRFLEHLV-NH2), the EC50 in series [1] was 63.1 nM. Also, the “Turbidity (pH 7)” value in series [2] turned out to be 0.08. Besides, in series [3], the EC50 is 0.0158 nM and the “SCTR EC50/GLP1R EC50 ratio” value is reported as 4094. Moreover, the Fibril formation in series [4] came out at 2928.
